The text below walks through data of US9084779B2, “Conjugates of nitroimidazoles and their use as chemotherapeutic agents” (The Johns Hopkins University, priority 2011, dated 2015).

≈ marks a conversion by molar mass, not a printed value.

Series [1] concerns Hep3B human hepatocellular carcinoma cells. Put plainly: MTS tetrazolium cell proliferation assay, 72-h exposure. As to conditions: normoxic (21% O2), read-out: IC50 Normoxic (N). In kind it is cell-based. The source says: Anti-proliferative assay. The human hepatocellular carcinoma cell line Hep3B was purchased from American Type culture Collection (ATCC, Manassas, Va.). Dulbecco's Modified Eagle Medium (DMEM) and penicillin/streptomycin (P/S) were obtained from GIBCO Invitrogen. Fetal Bovine serum (FBS) was obtained from Thermo Scientific Hyclone. Dimethyl sulfoxide (DMSO-Hybri-Max) was purchased from Sigma-Aldrich Co. and the CellTiter 96 AQueous One Solution Cell Proliferation Assay (MTS) was acquired from Promega Corp. Hep3B cells were maintained in DMEM supplemented with 10% FBS and 1× P/S solution. Cultures were incubated at 37° C. in a 5% CO2 atmosphere with 99% humidity. Stock solutions of test compounds were prepared in DMSO for use in the cell culture viability assays.
MTS tetrazolium cell proliferation assay. The viability of Hep3B cells exposed to the synthesized compounds was determined by the MTS assay. Briefly, Hep3B cells were plated in 96-well plates at a density of 3.0×10^3 cells/well and incubated for 24-h before treatment. At the initiation of treatment, the growth media was replaced with 200 μL of media containing increasing concentrations of the test compounds in triplicate wells. The final DMSO concentration in the media was 1.0% including the media added to the control wells minus the test compound. After a 72-hour incubation, 40 μL of MTS solution was added to each well and the plates were incubated for an additional 3.0 hours. The plates were then read at 490 nm on a Biotek Instruments PowerWave 200 microplate reader. For each experiment the percent growth inhibition relative to the control (no drug addition) was calculated and a dose inhibition curve was generated. The concentration of drug required to inhibit cell growth by 50% (IC50) compared to the control cells was then determined by non-linear regression using PSI-Plot software (Poly Software International).
Antiproliferative activity. The anti-cancer activities of the parent compounds 3 and 8 and the conjugated compounds 7a-d and 10a-d were tested against Hep3B human hepatocellular carcinoma cells in culture.

Series [2] in a line: Determination of water solubility by UV absorbance of a saturated solution. The format is physicochemical. As to conditions: for solubility at 1 h: thermodynamic from solid, water, saturated solution, sonicated at 25° C., stirred at room temperature 1.0 h, filtered; for Increment (solubility): PEG tether compound in comparison with the —CH2CH2— tether compound of the same pair (7c/7a, 7d/7b, 10c/10a, 10d/10b). The protocol: The aqueous solubility of all eight compounds was assessed by using a technique involving measurement of their UV absorbance^29.
Determination of Water Solubility of Compounds 7a-d and 10a-d. A saturated solution was prepared by addition of a test compound (7a-d and 10a-d; ca. 1.00 mg) to water (1.00 mL), which was sonicated at 25° C. for 5.0 min and stirring at room temperature for an additional 1.0 h. After filtration with Millipore filters (0.45-μm-pore-size polyvinylidene fluoride), the supernatant was analyzed by UV spectroscopy with concentration determined from absorbance, standardized against calibration data. Standard curves for each compound were obtained by plotting absorbance against concentration. The concentration range of the standard solutions was 1.0-10 μg/mL. For all standards, their curves were linear with γ>0.996.

Series [3] has as its system Hep3B human hepatocellular carcinoma cells. Put plainly: Hypoxia targeting assay, 5-h exposure then 5 days growth, MTS. In kind it is cell-based. As to conditions: for Ratio IC50 (N)/IC50 (H): normoxic versus hypoxic. The protocol: Hypoxia targeting assay. Hep3B cells, plated in 96-well plates at a density of 3.0×10^3 cells/well, were incubated overnight and then treated with the test compounds for 5.0 hours at under hypoxic (1% O2) or normoxic (21% O2) conditions. Exposure of cells to hypoxia was carried out in a PROOX C-Chamber with O2 and CO2 levels modulated by a PROOX Model C21 Controller (BioSpherix). At the end of the treatment period, the wells were washed with phosphate buffered saline (PBS) and fresh compound-free media was added. The cells were cultured for an additional 5 days under normoxic conditions and then assayed for cell proliferation using the MTS assay.
Hypoxia targeting. Nitroimidazoles are converted to reactive compounds in hypoxic cells. Therefore it is of importance to compare the antiproliferative activities of the nitroimidazole conjugated compounds against Hep3B cells under normoxic and hypoxic conditions. In these experiments, Hep3B cells in culture were treated with each of the conjugated compounds 7c-d, 10c-d, or the parent compounds 3 or 8 for a 5.0-hour period under normoxic (21% O2) or hypoxic (1.0% O2) conditions. After treatment, the cells were returned to normal conditions and assayed for proliferation after 5 days of additional growth. […] The ratio between the IC50 values for each drug under normoxic versus hypoxic culture conditions was computed and used as a measure of the relative increase in potency.

Series [4] concerns subcutaneous LNCaP prostate cancer cell explants. The experiment in a line: Immunofluorescence analysis of 2-nitroimidazole induced protein adducts in mouse tumor explants. The format is in vivo, nude mice. The conditions noted are these: daily intravenous tail vein injection for three weeks. The protocol: Immunofluorescence analysis of 2-nitroimidazole induced protein adducts in mouse tumor explants. Nude mice with subcutaneous LNCaP prostate cancer cell explants were administered Hydroxyprobe-1, M3N or M3N-PEG-2NI for three weeks by daily intravenous tail vein injection with an additional injection 3 hours prior to euthanization. Tumors were removed from the euthanized mice by dissection and incubated in 30% sucrose/PBS overnight at 4° C. Excess sucrose was removed and the tissue was incubated in 30% sucrose/PBS:OCT (1:1) for 1 hour at room temperature. Afterward the tissue was frozen in 100% OCT. Frozen sections of […] were prepared and fixed in 4% PFA/PBS for 1 hour at room temperature. The sections were blocked overnight at 4° C. with 5% goat serum/PBS or at room temperature for 1 hour and then incubated with Hydroxyprobe-1 rabbit antiserum (1:200) overnight at 4° C. After three washes with PBS, the secondary antibody, mouse anti rabbit-FITC (1:1000) was added for 1 hour at room temperature. The sections were mounted using Vectashield and fluorescently imaged.

The subject of series [5] is LNCaP human prostate cancer cells. Put plainly: Western blot analysis of 2-nitroimidazole induced protein adducts in cell culture. In kind it is cell-based. The conditions noted are these: 80 μM, 6 hours normoxic then 6 hours hypoxic or normoxic. The protocol: Western blot analysis of 2-nitroimidazole induced protein adducts in LNCaP cell cultures. Exponentially growing LNCaP human prostate cancer cells were treated with DMSO, 80 μM M3N-PEG-2NI or Hypoxyprobe-1 in standard media for 6 hours under normoxic conditions and then under hypoxic or normoxic conditions for additional 6 hours. Afterward the media was aspirated, the cells washed and ice cold RIPA lysis buffer was added and the cells lysed on ice for 15 minutes. The samples were centrifuged and the lysate collected. Cellular proteins in the extracts were analyzed for the presence of protein adducts using standard western blotting technique. The primary antibody was PAb2627 polyclonal antibody (1:200) directed against Hydroxyprobe-1 protein adducts. The secondary antibody was Anti-Rabbit HRP conjugate (1:2000). Detection was by chemiluminescence
(A western blot detects proteins with antibodies after separation by electrophoresis.)

[6] abbreviates: Homo sapiens, hypoxic (1.0% O2), then 5 days normoxic growth, read-out: IC50 Hypoxic (H).
Setting [7] is: Homo sapiens, normoxic (21% O2), then 5 days growth, read-out: IC50 Normoxic (N).
Where [8] appears, read: hypoxic (1.0% O2), then 5 days normoxic growth, read-out: IC50 Hypoxic (H).

What is called IC50 is the concentration needed to halve the response being measured. As usually defined, the solubility is the concentration that dissolves in the medium under given conditions.

For `COc1ccc(C[C@H](C)[C@H](C)Cc2ccc(OC)c(OCCOCCOCCOCCn3cnc([N+](=O)[O-])c3)c2)cc1OC` (racemic) [Compound 7c, (±)-(2R,3S)-4-(3,4-Dimethoxyphenyl)-1-[4-methoxy-3-[12-(4-nitro-1H-imidazol-1-yl)-1,4,7,10-tetraoxadodecanyl]phenyl]-2,3-dimethylbutane], the values for the IC50 in series [1], in series [3] (setting [6]) and in series [3] (setting [7]) were 13 ± 5.1 µM, 64.3 ± 15.1 µM and 104 ± 17.6 µM, respectively. In series [2], the solubility at 1 h came to 18.5 µg/mL (≈ 30.1 µM). For the same compound, in series [3], the “Ratio IC50 (N)/IC50 (H)” value was determined as 1.62.

With `COc1ccc(C[C@H](C)[C@H](C)Cc2ccc(OCCn3ccnc3[N+](=O)[O-])c(OC)c2)cc1OC` (racemic) [Compound 10b, (±)-(2R,3S)-4-(3,4-Dimethoxyphenyl)-1-[3-methoxy-4-[2-(2-nitro-1H-imidazol-1-yl)ethoxy]phenyl]-2,3-dimethylbutane], the IC50 in series [1] amounted to 24.8 ± 8.7 µM. In series [2], the “Increment (solubility)” value turned out to be 11.2 fold and the concentration in solution (solubility at 1 h) came to 1.7 µg/mL (≈ 3.52 µM).

Consider `COc1ccc(CC(C)C(C)Cc2ccc(OC)c(OC)c2)cc1O` (stereo not drawn) [Compound 8, trimethyl NDGA, reference compound], for which the IC50 in series [3] (setting [8]) was 87.6 ± 8.7 µM. Also, the “Ratio IC50 (N)/IC50 (H)” value in series [3] is given as 1.28.

`COc1ccc(C[C@H](C)[C@H](C)Cc2ccc(OCCOCCOCCOCCn3ccnc3[N+](=O)[O-])c(OC)c2)cc1OC` (racemic) [Compound 10d, (±)-(2R,3S)-4-(3,4-Dimethoxyphenyl)-1-[3-methoxy-4-[12-(2-nitro-1H-imidazol-1-yl)-1,4,7,10-tetraoxadodecanyl]phenyl]-2,3-dimethylbutane]: the IC50 in series [1] worked out at 13.4 ± 3.4 µM; in series [3] (setting [6]), 49.1 ± 4.9 µM; in series [3] (setting [7]), 119 ± 42.8 µM. In addition, the concentration in solution in series [2] (solubility at 1 h) came to 19.1 µg/mL (≈ 31.1 µM). In addition, in series [3], the “Ratio IC50 (N)/IC50 (H)” value is reported as 2.42.

As for `COc1ccc(C[C@H](C)[C@H](C)Cc2ccc(OCCOCCOCCOCCn3cnc([N+](=O)[O-])c3)c(OC)c2)cc1OC` (racemic) [Compound 10c, (±)-(2R,3S)-4-(3,4-Dimethoxyphenyl)-1-[3-methoxy-4-[12-(4-nitro-1H-imidazol-1-yl)-1,4,7,10-tetraoxadodecanyl]phenyl]-2,3-dimethylbutane], the IC50 in series [1] worked out at 12.5 ± 4.1 µM; in series [3] (setting [6]), 52.1 ± 3.8 µM; in series [3] (setting [7]), 140 ± 33.5 µM. In series [2], this compound displayed a solubility at 1 h of 10.5 µg/mL (≈ 17.1 µM). Further, the “Ratio IC50 (N)/IC50 (H)” value in series [3] worked out at 2.69.

Consider `COc1ccc(C[C@H](C)[C@H](C)Cc2ccc(OCCn3cnc([N+](=O)[O-])c3)c(OC)c2)cc1OC` (racemic) [Compound 10a, (±)-(2R,3S)-4-(3,4-Dimethoxyphenyl)-1-[3-methoxy-4-[2-(4-nitro-1H-imidazol-1-yl)ethoxy]phenyl]-2,3-dimethylbutane], for which the IC50 in series [1] came to 18.7 ± 4.1 µM. In series [2], the “Increment (solubility)” value is reported as 6.5 fold and the concentration in solution (solubility at 1 h) was 1.63 µg/mL (≈ 3.37 µM).

Turning to `COc1ccc(C[C@H](C)[C@H](C)Cc2ccc(OC)c(OCCn3cnc([N+](=O)[O-])c3)c2)cc1OC` (racemic) [Compound 7a, (±)-(2R,3S)-4-(3,4-Dimethoxyphenyl)-1-[4-methoxy-3-[2-(4-nitro-1H-imidazol-1-yl)ethoxy]phenyl]-2,3-dimethylbutane], the IC50 in series [1] is 15.8 ± 1.6 µM. In series [2], the “Increment (solubility)” value is on record as 10.5 fold and the solubility at 1 h was 1.76 µg/mL (≈ 3.64 µM).

As to `Cl.O=[N+]([O-])c1nccn1CC(O)CN1CCCCC1` (stereo not drawn) [Hydroxyprobe-1], the “Protein adducts in tumor sections by immunofluorescence” value in series [4] is reported as “Protein-adducts were also found”. Besides, the “Protein adducts by western blot (PAb2627 antibody)” value in series [5] is listed as “showed evidence of protein adducts”.

As for `COc1ccc(C[C@H](C)[C@H](C)Cc2ccc(OC)c(OCCn3ccnc3[N+](=O)[O-])c2)cc1OC` (racemic) [Compound 7b, (±)-(2R,3S)-4-(3,4-Dimethoxyphenyl)-1-[4-methoxy-3-[2-(2-nitro-1H-imidazol-1-yl)ethoxy]phenyl]-2,3-dimethylbutane], the half-inhibitory concentration (IC50) in series [1] was 21.8 ± 4.5 µM. Besides, in series [2], the “Increment (solubility)” value was found to be 8.1 fold and the solubility at 1 h was determined as 1.64 µg/mL (≈ 3.39 µM).

Regarding `COc1ccc(CC(C)C(C)Cc2ccc(OC)c(OC)c2)cc1O` (stereo not drawn) [Compound 3, trimethyl NDGA, reference compound], the IC50 in series [3] (setting [8]) was found to be 99 ± 0.6 µM. Also, in series [3], the “Ratio IC50 (N)/IC50 (H)” value turned out to be 1.58.
